Measurements from patent US9352015B2, “Antimicrobial peptides” (priority 2009, dated 2016).
In brackets after ≈: the same amount, converted by molar mass. Several values for one entry are separate records, joined by “and”; a condition that tells them apart may be missing. Identical values can stand only once. Like-named read-outs stand apart in the source and are kept apart here.

What was measured:
[1] = Hemolytic activity against human erythrocytes (HC50 / MHC, microtiter dilution); assay type: cell-based; settings: human, 1% human erythrocytes, pH 7.4
Procedure: Hemoglobin release was determined spectrophotometrically at 570 nm. The hemolytic activity was determined as the peptide concentration that caused 50% hemolysis of erythrocytes after 18 h (HC50). […] HC50 was determined by a plot of peptide concentration versus percent lysis.

[2] = RP-HPLC temperature profiling (peptide self-association parameter PA); assay type: physicochemical; settings: RP-HPLC temperature profiling 5-80° C., pH 2, relative to control peptide C
Procedure: Temperature profiling analyses were performed on the same column in 3° C. increments, from 5° C. to 80° C., using a linear AB gradient of 0.5% acetonitrile/min, as described previously (30, 53, 92, 93).
Peptide self-association (i.e., the ability to oligomerize/dimerize) in aqueous solution is a very important parameter for antimicrobial activity (53, 92, 93). Without wishing to be bound by any particular theory, the present inventors postulated that monomeric random-coil antimicrobial peptides are best suited to pass through the capsule and cell wall of microorganisms prior to penetration into the cytoplasmic membrane, induction of α-helical structure and disruption of membrane structure to kill target cells (93). Thus, if the self-association ability of a peptide in aqueous media is too strong (e.g., forming stable folded dimers through interaction of their non-polar faces) this could decrease the ability of the peptide to dissociate to monomer, in addition oligomerization of the peptide can prevent it from effectively passing through the capsule and cell wall to reach the membrane. The ability of the peptides in the present study to self-associate was determined by the technique of RP-HPLC temperature profiling at pH 2 (29, 30, 38). The reason pH 2 is used to determine self-association of cationic AMPs is that highly positively charged peptides are frequently not eluted from reversed-phase columns at pH 7 due to non-specific binding to negatively charged silanols on the column matrix. This is not a problem at pH 2 since the silanols are protonated (i.e., neutral) and non-specific electrostatic interactions are eliminated. At pH 2, the interactions between the peptide and the reversed-phase matrix involve ideal retention behavior, i.e., only hydrophobic interactions between the preferred binding domain (nonpolar face) of the amphipathic molecule and the hydrophobic surface of the column matrix are present (39). […] Control peptide C is a monomeric random coil peptide in both aqueous and hydrophobic media; thus, its linear decrease in peptide retention behavior with increasing temperature within the range of 5° C. to 80° C. represents only the general effects of temperature due to greater solute diffusivity and enhanced mass transfer between the stationary and mobile phase at higher temperatures (55). To allow for these general temperature effects, the data for the control peptide was subtracted from each temperature profile as shown in FIG. 2B. Thus, the peptide self-association parameter, PA, represents the maximum change in peptide retention time relative to the random coil peptide C. Note that the higher the PA value, the greater the self-association.

[3] = tested on: Methicillin Resistant Staphylococcus aureus (MRSA) and Staphylococcus aureus; assay type: cell-based
Procedure: (§1) Minimal inhibitory concentrations (MICs) are determined using a standard microtiter dilution method, with 3 sets of determinations, in LB (Luria-Bertani) no-salt medium (10 g of tryptone and 5 g of yeast extract per liter). In some cases, Mueller Hinton (MH) medium or Brain Heart Infusion (BHI) medium is used.
(§2) Briefly, cells were grown overnight at 37° C. in LB and diluted in the same medium. Serial dilutions of the peptides are added to the microtiter plates in a volume of 100 μl followed by 10 μl of bacteria to give a final inoculum of 5×10^5 colony-forming units/ml. Plates are incubated at 37° C. for 24 hours and MICs determined as the lowest peptide concentration that inhibited growth. Alternatively, minimal inhibitory concentrations are determined using a standard microtiter dilution method in a Mueller-Hinton (MH) medium. Briefly, cells are grown overnight at 37° C. in MH broth and diluted in the same medium. In some cases, serial dilutions of the peptides are added to the microtiter plates in a volume of 100 μl followed by 10 μl of bacteria to give a final inoculum of 1×10^5 colony-forming units/ml. Plates are incubated at 37° C. for 24 hours and MICs are determined as the lowest peptide concentration that inhibited growth.
Identification of Antimicrobial Peptides for Gram-positive Bacteria. In a manner similar to testing against gram-negative bacteria, experiments were carried out to screen the 14 peptides used to identify antimicrobial peptides with significant activity against A. baumanii shown above against 20 different clinical isolates of Methicillin Resistant Staphylococcus aureus (MRSA) and Staphylococcus aureus.

[4] = tested on: Acinetobacter baumannii; assay type: cell-based
Procedure: as §1, §2
The biological activities of these six peptide analogs was determined against 11 clinical isolated of Acinetobacter baumannii (Table 9). Please note that the activities are reported in micromolar rather than microgram/ml. This allows a direct comparison on a molar basis with the effectiveness of molecules of different molecular weights whether peptides disclosed herein or antibiotics which in general are smaller in molecular mass. […] These are the highest antimicrobial activities observed in studies of antimicrobial peptides derived by modifying the peptide sequence of SEQ ID NO:24 (D1). D22 has the best hemolytic activity of the six analogs (D17-D22) and a therapeutic index of […] compared to […] for D1 (Table 9). D22 has no apparent advantage over D1 as determined in these experiments.

[5] = tested on: Pseudomonas aeruginosa; settings: for MIC PAO 1: 37° C., 24 h, strain PAO1; for MIC GM (geometric mean of the MIC values): six P. aeruginosa strains; for MIC CP 204: strain CP204; for MIC M 2: strain M2; for MIC PA 14: strain PA14; for MIC PAK: strain PAK; for MIC WR 5: strain WR5
[6] = RP-HPLC retention as measure of overall peptide hydrophobicity; assay type: physicochemical; settings: pH 2, room temperature
Procedure: Crude and purified peptides were analyzed on an Agilent 1100 series liquid chromatograph (Little Falls, Del.). Runs were performed on a Zorbax 300 SB-C8 column (150×2.1 mm I.D.; 5 μm particle size, 300 Å pore size) from Agilent Technologies using linear AB gradient (1% acetonitrile/min) and a flow rate of 0.25 ml/min, where eluant A was 0.2% aqueous TFA, pH 2 and eluant B was 0.2% TFA in acetonitrile.

SMILES	HC50 at 18 h [1]	PA (dimerization / self-association parameter) [2]	MIC GM (geometric mean) [3] [µM]	MIC GM (geometric mean) [4] [µM]	MIC PAO 1 ([5]; Brain Heart Infusion medium) [mg/L]	MIC GM (geometric mean of the MIC values) ([5]; Brain Heart Infusion medium) [mg/L]	MIC CP 204 ([5]; Brain Heart Infusion medium) [mg/L]	MIC M 2 ([5]; Brain Heart Infusion medium) [mg/L]	MIC PA 14 ([5]; Brain Heart Infusion medium) [mg/L]	MIC PAK ([5]; Brain Heart Infusion medium) [mg/L]	MIC WR 5 ([5]; Brain Heart Infusion medium) [mg/L]	MIC PAO 1 ([5]; Mueller Hinton medium) [mg/L]	MIC GM (geometric mean of the MIC values) ([5]; Mueller Hinton medium) [mg/L]	MIC CP 204 ([5]; Mueller Hinton medium) [mg/L]	MIC M 2 ([5]; Mueller Hinton medium) [mg/L]	MIC PA 14 ([5]; Mueller Hinton medium) [mg/L]	MIC PAK ([5]; Mueller Hinton medium) [mg/L]	MIC WR 5 ([5]; Mueller Hinton medium) [mg/L]	Hydrophobicity (retention time in RP-HPLC) [6]	further results
CC[C@@H](C)[C@@H](NC(=O)[C@@H](C)NC(=O)[C@@H](CCCCN)NC(=O)[C@@H](CC(C)C)NC(=O)[C@@H](CC(C)C)NC(=O)[C@H](NC(=O)[C@@H](CCCCN)NC(=O)[C@@H](CC(C)C)NC(=O)[C@@H](C)NC(=O)[C@@H](CCCCN)NC(=O)[C@@H](CCCCN)NC(=O)[C@@H](CCCCN)NC(=O)[C@@H](C)NC(=O)[C@@H](CCCCN)NC(=O)[C@@H](CO)NC(=O)[C@@H](Cc1ccccc1)NC(=O)[C@H](NC(=O)[C@@H](CCCCN)NC(=O)[C@@H](CC(C)C)NC(=O)[C@@H](Cc1ccccc1)NC(=O)[C@@H](CO)NC(=O)[C@@H](CCCCN)NC(=O)[C@@H](Cc1c[nH]c2ccccc12)NC(=O)[C@@H](CCCCN)NC(C)=O)[C@H](C)O)[C@H](C)O)C(=O)N[C@H](CO)C(=O)N[C@H](CCCCN)C(N)=O [Peptide D22, Ac-KWKSFLKTFSKAKKKALKTLLKAISK-amide]	249 µg/mL and 81.3 µM	5.13	12.1 (≈ 37.1 µg/mL)	0.8 (≈ 2.45 µg/mL)	15.6 (≈ 5.09 µM)	9.8	31.3 (≈ 10.2 µM)	3.9 (≈ 1.27 µM)	3.9 (≈ 1.27 µM)	7.8 (≈ 2.55 µM)	15.6 (≈ 5.09 µM)	3.9 (≈ 1.27 µM)	7.0	31.3 (≈ 10.2 µM)	15.6 (≈ 5.09 µM)	0.5 (≈ 0.163 µM)	3.9 (≈ 1.27 µM)	31.3 (≈ 10.2 µM)	90.7 min and 90.67 min	Acinetobacter baumannii MICGM ([4]; geometric mean, 11 different isolates, 24 hours at 37° C.): 0.8 µM; Pseudomonas aeruginosa MICGM ([5]; geometric mean, 6 different isolates, 24 hours at 37° C.): 2.3 µM
CC[C@@H](C)[C@@H](NC(=O)[C@@H](C)NC(=O)[C@@H](CCCCN)NC(=O)[C@@H](CC(C)C)NC(=O)[C@@H](CC(C)C)NC(=O)[C@H](NC(=O)[C@@H](CCCCN)NC(=O)[C@@H](CC(C)C)NC(=O)[C@@H](C)NC(=O)[C@@H](CCCCN)NC(=O)[C@@H](CCCCN)NC(=O)[C@@H](CCCCN)NC(=O)[C@@H](C)NC(=O)[C@@H](CCCCN)NC(=O)[C@@H](CO)NC(=O)[C@@H](Cc1ccccc1)NC(=O)[C@H](NC(=O)[C@@H](CCCCN)NC(=O)[C@@H](CC(C)C)NC(=O)[C@@H](Cc1ccccc1)NC(=O)[C@@H](CO)NC(=O)[C@@H](CCCCN)NC(=O)[C@@H](Cc1c[nH]c2ccccc12)NC(=O)[C@@H](CO)NC(C)=O)[C@H](C)O)[C@H](C)O)C(=O)N[C@H](CO)C(=O)N[C@H](CO)C(N)=O [Peptide D20, Ac-SWKSFLKTFSKAKKKALKTLLKAISS-amide]	77 µg/mL and 25.8 µM	6.39	6.0 (≈ 17.9 µg/mL)	0.6 (≈ 1.79 µg/mL)	7.8 (≈ 2.62 µM)	9.8	15.6 (≈ 5.23 µM)	7.8 (≈ 2.62 µM)	7.8 (≈ 2.62 µM)	15.6 (≈ 5.23 µM)	7.8 (≈ 2.62 µM)	7.8 (≈ 2.62 µM)	12.4	31.3 (≈ 10.5 µM)	15.6 (≈ 5.23 µM)	7.8 (≈ 2.62 µM)	7.8 (≈ 2.62 µM)	15.6 (≈ 5.23 µM)	95.90 min	
CC[C@@H](C)[C@@H](NC(=O)[C@@H](C)NC(=O)[C@@H](CO)NC(=O)[C@@H](CC(C)C)NC(=O)[C@@H](CC(C)C)NC(=O)[C@H](NC(=O)[C@@H](CCCCN)NC(=O)[C@@H](CC(C)C)NC(=O)[C@@H](C)NC(=O)[C@@H](CCCCN)NC(=O)[C@@H](CCCCN)NC(=O)[C@@H](CCCCN)NC(=O)[C@@H](C)NC(=O)[C@@H](CCCCN)NC(=O)[C@@H](CO)NC(=O)[C@@H](Cc1ccccc1)NC(=O)[C@H](NC(=O)[C@@H](CO)NC(=O)[C@@H](CC(C)C)NC(=O)[C@@H](Cc1ccccc1)NC(=O)[C@@H](CO)NC(=O)[C@@H](CO)NC(=O)[C@@H](Cc1c[nH]c2ccccc12)NC(=O)[C@@H](CO)NC(C)=O)[C@H](C)O)[C@H](C)O)C(=O)N[C@H](CO)C(=O)N[C@H](CO)C(N)=O [Peptide D17, Ac-SWSSFLSTFSKAKKKALKTLLSAISS-amide]	62 µg/mL and 21.7 µM	7.96	19.7 (≈ 56.3 µg/mL)	0.7 (≈ 2 µg/mL)	31.3 (≈ 11 µM)	35.1	62.5 (≈ 21.9 µM)	31.3 (≈ 11 µM)	15.6 (≈ 5.46 µM)	31.3 (≈ 11 µM)	62.5 (≈ 21.9 µM)	15.6 (≈ 5.46 µM)	22.1	31.3 (≈ 11 µM)	31.3 (≈ 11 µM)	15.6 (≈ 5.46 µM)	15.6 (≈ 5.46 µM)	31.3 (≈ 11 µM)	98.81 min	MIC ([4]; 24 h): 0.7 µM (≈ 2 µg/mL)
